Counter-ions that a name gives are not always drawn.
Tests used:
[1] = tested on: aggressive behavior of male Swiss albino mice; assay: Resident intruder task, aggressive behavior (Example 5); assay type: in vivo; details: for agitation/aggression in resident mice: mouse, in vivo
From the text: Animal groups: Swiss albino male mice were distributed in 13 different experimental groups with 6-14 mice per group as illustrated in Table 9. Each experimental group was also coded so that the experimenter became unaware of the true experimental group during RI assay.
Rationale: The resident-intruder stress is an ethologically relevant model to examine mechanisms underlying stress-related psychiatric disorders. In male rats, a single resident-intruder exposure activates LC neurons. Considered as a major stress response system, LC-NE activation is critical in maintaining arousal in response to acute stress.
Study drugs: The test substances (Dexmedetomidine hydrochloride, latrepirdine dihydrochloride hydrate and sodium valproate) were dissolved in 0.9% normal saline which served as the vehicle. β-Estradiol was dissolved in 0.9% normal saline.
Study design and dosing: Bilateral ovariectomy surgery was carried out in 3-4 weeks old female Swiss albino mice as per the standard methods (Alagwu and Nneli, 2005). Animals were anesthetized using Avertin (2,2,2-Tribromoethanol) at 250 mg/kg, i.p. and were laid down on the surgery table and fixed with adhesive plaster. A midline incision was made on the dorsal region below the rib and 1 cm lateral to the either side of midline, a small incision was made on fascia to isolate the adipose fat supporting the ovaries. By slowly pulling out the fat tissue, the ovary was identified and excised the following uterine horn ligation with silk sutures. Fascia was covered with sutures and similar procedure was repeated on the other side as well. Superficial skin layers were sutured and gentamicin (80 mg/kg, s.c.) was given as antibiotic and meloxicam (4 mg/kg, s.c.) as analgesic, then povidone iodine was applied on superficial skin layers. Polyethylene glycol (PEG) was applied to prevent drying of eye balls and kept for recovery period of 3 weeks (surgery was carried by a single experimenter). Male Swiss albino mice (25-40 grams, Resident animals) was housed individually i.e., 1 animal/cage with an ovariectomized female Swiss albino mice for a period of three weeks (Isolated habituation). During this habituation period, female mice were treated with β-Estradiol at a dose of 0.2 mg/kg, s.c. Male Swiss albino mice (10-20 grams, Intruder animals) were housed 5 animals/cage for a period of five days (Social habituation). On the day of exposure, animals were brought into the experimental room 60 minutes before starting the experiment, to habituate them to the experimental conditions. […]
Statistical analysis: Data obtained was compared with basal scoring by using Student's paired two tailed t-test. Duration of attack, and latency of attack between the groups was analyzed using One-Way ANOVA followed by Bonferroni's posthoc test. […]

[2] = tested on: motor activity (locomotion) and sedation behavior of male Swiss albino mice; assay: Open field test, motor activity (locomotion) and sedation (Example 7); assay type: in vivo
Procedure: Rationale: The spontaneous locomotor activity in terms of total distance traveled is measured in open field test. Comparatively lower distance traveled would indicate either less motor activity or sedation.
Animal groups: Swiss albino male mice (6-7 weeks old; 25-40 g weight) were distributed in 10 different experimental groups with 12 […] per group as illustrated in Table
Study drugs: The test substances (Dexmedetomidine hydrochloride and latrepirdine dihydrochloride hydrate) were dissolved in 0.9% normal saline which served as the vehicle.
Study design and dosing: Mice were brought to the laboratory and allowed to acclimatize to the environment for at least 7 days. The open field test was done in lighting conditions of 40 lux light. The mice were dosed as per the grouping in Table 10. After a post dose interval of 60 minutes, 4 mice from a group were placed in the open field and the movement was tracked for a period of 30 minutes. Once the trial was over the mice were removed from the open field and the arena was cleaned. Following this, next set of 4 mice were placed in the arena and tracked.
Statistical analysis: The distance travelled for a period of 30 minutes was analyzed in bins of 5 minutes and was compared with that of the vehicle group using one-way ANOVA followed by Dunnett's test. All statistical analyses were performed using Graph pad prism software package (Version 7 or Higher) and p value below 0.05 was considered as significant.

[3] = 1 mg/kg, 3 mg/kg and 10 mg/kg, i.p.

| Compound | duration of attack [1, 3] | agitation/aggression in resident mice [1] | distance traveled [2, 3] | mean duration of attack ([1]; latrepirdine 10 mg/kg, i.p.) | locomotion and sedation ([2]; latrepirdine, open field test) |
| --- | --- | --- | --- | --- | --- |
| Cc1ccc2c(c1)c1c(n2CCc2ccc(C)nc2)CCN(C)C1 [latrepirdine dihydrochloride hydrate] | significantly decreased | decreased agitation/aggression | did not show any significant reduction in distance traveled | – | – |
| Cc1ccc2c(c1)c1c(n2CCc2ccc(C)nc2)CCN(C)C1 [latrepirdine, 2,8-dimethyl-5-[2-(6-methylpyridin-3-yl)ethyl]-3,4-dihydro-1H-pyrido[4,3-b]indole] | – | significantly decreased agitation/aggression in resident mice | – | 36.87 s | did not cause any reduction in locomotion nor caused sedation |

— patent publication US20260325500A1, “METHODS AND COMPOSITIONS FOR TREATING ACUTE STRESS DISORDER” (BioXcel Therapeutics, Inc., priority 2022, published 2026)
